# Experimental data published in patent US20180250230A1, “POLYMERS AND MICROSPHERES” (BIOCOMPATIBLES UK LIMITED, priority 2015, published 2018).
# Assay: Elution of dyes from loaded microspheres in PBS
# Assay type: physicochemical
# Conditions: from APTA43 microspheres; 1 ml in 200 mL PBS; initial loading 8.6 umols per mL of microspheres
# Protocol: Microspheres of each polymer formulation were loaded with equal quantities of each dye. 1 ml samples of dye-loaded microspheres were added to 200 mL of PBS in an amber jar. The microsphere suspensions were rolled to provide continuous mixing. At each time point the eluent was sampled and assayed by UV/Vis spectrophotmetery as above. The volume of sampled eluent was replaced with fresh PBS to maintain the elution volume. FIG. 5 illustrates the elution profiles of each dye from APTA43 microspheres.
row,SMILES,initial loaded amount released within 60 minutes
1,"O=S(=O)([O-])c1ccc2ccc3cccc4ccc1c2c34.[Na+] [Formulation P1, 1-pyrenesulfonic acid sodium salt]",80%
2,"O=S(=O)([O-])c1cc(S(=O)(=O)[O-])c2ccc3c(O)cc(O)c4ccc1c2c43.[Na+].[Na+] [Formulation P2, 6,8-dihydroxypyrene-1,3-disulfonic acid disodium salt]",9%
3,"O=S(=O)([O-])c1cc(O)c2ccc3c(S(=O)(=O)[O-])cc(S(=O)(=O)[O-])c4ccc1c2c34.[Na+].[Na+].[Na+] [Formulation P3, 8-hydroxypyrene-1,3,6-trisulfonic acid trisodium salt]",approximately 3%
4,"O.O=S(=O)([O-])c1cc(S(=O)(=O)[O-])c2ccc3c(S(=O)(=O)[O-])cc(S(=O)(=O)[O-])c4ccc1c2c43.[Na+].[Na+].[Na+].[Na+] [Formulation P4, 1,3,6,8-pyrenetetrasulfonic acid hydrate tetrasodium salt]",approximately 3%
